# Test results as given in paper PMC8218751, “Visualizing Borrelia burgdorferi Infection Using a Small-Molecule Imaging Probe” (Journal of Clinical Microbiology, 2021).
# What was measured:
# B. burgdorferi = B. burgdorferi live bacterial imaging; format: cell-based, Borrelia burgdorferi
# Description: B. burgdorferi strain B31 was obtained from ATCC (ATCC catalog number ATCC-35210). Cultures were grown in Barbour-Stoenner-Kelly medium (BSK-II) created using the Barbour protocol ([19]) without gelatin and supplemented with 6 % rabbit serum (Pel-Freez catalog number 31128-5) at 34°C. Low-passage-number cultures (less than 4) were utilized. Later-stage morphological variants were obtained by increasing culture time to approximately 8 days to achieve a density of ∼10^8/ml counted under dark-field microscopy.
# […] germ agglutinin (WGA) conjugated with Alexa 488 at 10 μg per ml (Biotium catalog number 29022), and cells were then washed with fresh medium and mounted with Prolong Gold with 4′,6-diamidino-2-phenylindole (DAPI). Samples were imaged on a Zeiss Axio Imager upright microscope, using 63× oil objective, and visible light for differential […] contrast (DIC) imaging and excitation at 405, 488, or 633 nm for detection of DAPI, fluorescein isothiocyanate (FITC), or HS-198, respectively.
# E. coli HtpG = molecular target: T1, E. coli HtpG (Escherichia coli, UniProt P0A6Z3); assay: biochemical; format: binding
# T1 construct: His6 (N); made in house; host or cells: E. coli BL21(DE3)
# T1 sequence (P0A6Z3 whole entry): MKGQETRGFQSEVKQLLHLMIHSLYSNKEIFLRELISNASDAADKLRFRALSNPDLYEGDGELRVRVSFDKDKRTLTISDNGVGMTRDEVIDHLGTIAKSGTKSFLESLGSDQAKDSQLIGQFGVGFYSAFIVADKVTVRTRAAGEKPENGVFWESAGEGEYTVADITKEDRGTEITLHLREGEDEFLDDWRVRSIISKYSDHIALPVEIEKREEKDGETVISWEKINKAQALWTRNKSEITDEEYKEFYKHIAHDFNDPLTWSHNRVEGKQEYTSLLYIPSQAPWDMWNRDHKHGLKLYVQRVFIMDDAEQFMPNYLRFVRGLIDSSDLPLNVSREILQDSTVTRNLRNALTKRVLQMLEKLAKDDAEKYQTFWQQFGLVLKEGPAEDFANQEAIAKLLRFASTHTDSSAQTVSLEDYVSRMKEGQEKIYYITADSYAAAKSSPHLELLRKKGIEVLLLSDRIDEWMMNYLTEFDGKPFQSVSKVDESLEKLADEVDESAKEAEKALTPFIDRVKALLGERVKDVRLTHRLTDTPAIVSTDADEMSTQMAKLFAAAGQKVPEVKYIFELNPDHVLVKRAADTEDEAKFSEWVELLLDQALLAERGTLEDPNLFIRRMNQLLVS
# Description: (§1) Escherichia coli (strain BL21/DE3) genomic DNA was isolated from a lab culture generated from the cloning/expression bacterium (ThermoFisher catalog no. EC0114) by overnight proteinase K digestion at 56°C, high-salt clarification, and ethanol precipitation. […] Human Hsp90-alpha sequences were derived from cDNA generated from total mRNA of the human breast epithelial line, MCF10A. HtpG DNA sequences were PCR cloned from these DNAs using primers designed to allow in-frame cloning with GFP in the isopropyl-β-D-thiogalactopyranoside (IPTG)-inducible bacterial expression vector. […] Fusion protein cloning was done using the ligation-independent cloning procedure via single-nucleotide T4 DNA polymerase treatment of vector and purified PCR products followed by annealing of complementary single-strand ends before transformation into DH5 E. coli. […] Fusion protein synthesis was induced by incubation with 1 mM IPTG or autoinduction ([17]).
# (§2) γ-linked ATP Sepharose matrix was generated as described previously by the Haystead lab ([18]). […] The clarified lysate was added to a column containing ATP-bound Sepharose. The column was washed with low-salt buffer (150 mM NaCl, 25 mM HEPES, pH 7.4, 1 mM dithiothreitol [DTT], and 60 mM MgCl2), followed by high-salt buffer (1 M NaCl, 25 mM HEPES, pH 7.4, 1 mM DTT, 0.1% IGEPAL, and 60 mM MgCl2) and once again low-salt buffer to remove unbound protein. Next, the resin with bound proteins (50 μl) was transferred to a 0.2-μm polyvinylidene fluoride filter 96-well plate (Corning) sitting on top of a black flat-bottomed 96-well catch plate (Corning). […] The eluted proteins were measured in a fluorescent plate reader to detect the GFP.
# Subtle single amino acid differences are present within the catalytic clefts of these proteins, especially between residues that contact the nucleotide. […] We therefore reasoned that these differences may be sufficient to design small molecules that can similarly discriminate HtpG of stealth organisms. To test this hypothesis, we utilized a fluorescent-linked enzyme chemoproteomic strategy (FLECS) assay to test known Hsp90 inhibitors ([18]) for binding to various HtpG constructs. First, we cloned and expressed in E. coli recombinant N-terminal GFP-fusion forms of HtpG from B. burgdorferi, E. coli, and Treponema denticola, the oral spirochete, as well as human Hsp90. We then incubated lysate after protein expression with an ATP Sepharose resin to enable binding. In this assay, ATP is tethered to Sepharose beads via its γ-phosphate, enabling the nucleotide to bind to ATP binding proteins such as Hsp90 and HtpG, but is nonhydrolyzable ([24]). After proteins are bound to the ATP Sepharose resin, small molecules with affinity for the ATP binding site will elute the GFP-fusion protein, which can readily be detected and quantified on a plate fluorometer.
# These compounds were selected for testing based on their known binding to human Hsp90 ([25], [26]).
# human Hsp90 = human Hsp90 (Homo sapiens, UniProt P07900); assay: FLECS assay, elution of GFP-Hsp90 from ATP Sepharose; format: binding; design: His6 (N); made in house; host or cells: E. coli BL21(DE3); conditions: in words
# Description: as §1, §2
# Subtle single amino acid differences are present within the catalytic clefts of these proteins, especially between residues that contact the nucleotide. […] After proteins are bound to the ATP Sepharose resin, small molecules with affinity for the ATP binding site will elute the GFP-fusion protein, which can readily be detected and quantified on a plate fluorometer. […]
smiles,measurement,setting,value
Cc1nn(-c2ccc(C(=O)N(C)C)c(NCCCOCCOCCOCCOCCOCCCNCc3ccc(C(=C\C=C4/N(CCCCS(=O)(=O)O)c5ccccc5C4(C)C)/C=C/C4=[N+](CCCCS(=O)(=O)[O-])c5ccccc5C4(C)C)cc3)c2)c2c1C(=O)CC(C)(C)C2 [HS-198],"Uptake, share of B. burgdorferi spirochetes","B. burgdorferi; 10 μM, incubated 1 h",> 90%
same,Accumulation in B. burgdorferi morphological states,"B. burgdorferi; 10 μM, spirochetes, blebs, aggregates, colocalization with DAPI",accumulates in B. burgdorferi in all of its morphological states
same,Effect on B. burgdorferi morphology or motility,"B. burgdorferi; overnight incubation, live B. burgdorferi",does not appear to affect
same,Kd,E. coli HtpG,5.8 ± 0.6 µM
same,Release of E. coli GFP-HtpG from ATP Sepharose,E. coli HtpG; in words,released
same,Release of recombinant human GFP-Hsp90α from ATP Sepharose beads,human Hsp90,did not
